Data as given in PubChem BioAssay AID220 (DTP/NCI, 2004).
Several values for one entry are separate records, joined by “and”; a condition that tells them apart may be missing. Identical values can stand only once. Records with an inconclusive call do not appear. Starred links: 1 amine or outer side, 2 acyl side, 3 side chain; linkers in the order of their positions; H or OH if unused. Positions of bridges follow the written chain, without caps; N, C: chain ends. Non-standard residues stand in square brackets, D forms with d. Residues, ends and D or L forms follow the SMILES beside them. Chains are numbered I, II in the order given. Actinocin(9to1) = Cc1c2oc3c(C)ccc(C(=O)[*:1])c3nc-2c(C(=O)[*:2])c(N)c1=O; aThr = C[C@H](O)[C@H](N)C(=O)O; NMeV = CN[C@H](C(=O)O)C(C)C; Sar = CNCC(=O)O

Test system: CD8F1 mice, subcutaneous mammary adenocarcinoma, T/C%
Assay: NCI In Vivo Anticancer Drug Screen. Data for tumor model Mammary Adenocarcinoma CD8F1 (subcutaneous) in CD8F1
Conditions: higher = larger tumour
Method in brief: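 Transplantable tumors were established in mice, animals were dosed with compound or vehicle, and survival or tumor size was then measured in both groups. The treated result was divided by the control result.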

[1] = endpoint: median tumor weight (est.), dose: 100.0 mg/kg/injection, schedule: Q07DX005 (ip), vehicle: saline with Tween-80
[2] = endpoint: median tumor weight (est.), dose: 200.0 mg/kg/injection, schedule: Q07DX005 (ip), vehicle: saline with Tween-80

## [Na+]
endpoint: median tumor weight change, dose: 75.0 mg/kg/injection, schedule: Q01DX001 (ip), vehicle: water
  T/C: 68 % of control
endpoint: median tumor weight change, dose: 150.0 mg/kg/injection, schedule: Q01DX001 (ip), vehicle: water
  T/C: 93 % of control
endpoint: median tumor weight change, dose: 300.0 mg/kg/injection, schedule: Q01DX001 (ip), vehicle: water
  T/C: 66 % of control
endpoint: median tumor weight change, dose: 600.0 mg/kg/injection, schedule: Q01DX001 (ip), vehicle: water
  T/C: 85 % of control
endpoint: median tumor weight change, dose: 1200.0 mg/kg/injection, schedule: Q01DX001 (ip), vehicle: water
  T/C: 67 % of control

## Cn1ccc(=Nc2ccc(NC(=O)c3ccc(N=c4ccn(C)c5ccc([N+](=O)[O-])cc45)cc3[N+](=O)[O-])cc2)cc1
[1]
  T/C: 48 % of control
[2]
  T/C: 124 % of control

## C[C@@H]1C[C@@H]([C@H](O)CC2CC(=O)NC(=O)C2)C(=O)[C@@H](C)C1
endpoint: median tumor weight change, dose: 62.5 mg/kg/injection, schedule: Q01DX001 (ip), vehicle: suspension in saline
  T/C: 57 % of control
endpoint: median tumor weight change, dose: 125.0 mg/kg/injection, schedule: Q01DX001 (ip), vehicle: suspension in saline
  T/C: 72 % of control
endpoint: median tumor weight change, dose: 250.0 mg/kg/injection, schedule: Q01DX001 (ip), vehicle: suspension in saline
  T/C: 57 % of control

## O=C1c2cccc3cc([N+](=O)[O-])cc(c23)C(=O)N1CCN1CCCC1
endpoint: median tumor weight change, dose: 7.0 mg/kg/injection, schedule: Q01DX001 (ip), vehicle: saline with Tween-80
  T/C: 117 % of control
endpoint: median tumor weight change, dose: 14.06 mg/kg/injection, schedule: Q01DX001 (ip), vehicle: saline with Tween-80
  T/C: 69 % of control
endpoint: median tumor weight change, dose: 28.12 mg/kg/injection, schedule: Q01DX001 (ip), vehicle: saline with Tween-80
  T/C: 118 % of control
endpoint: median tumor weight change, dose: 31.25 mg/kg/injection, schedule: Q01DX001 (ip), vehicle: saline with Tween-80
  T/C: 63 % of control
endpoint: median tumor weight change, dose: 56.25 mg/kg/injection, schedule: Q01DX001 (ip), vehicle: saline with Tween-80
  T/C: 81 % of control
endpoint: median tumor weight change, dose: 62.5 mg/kg/injection, schedule: Q01DX001 (ip), vehicle: saline with Tween-80
  T/C: 20 % of control
endpoint: median tumor weight change, dose: 112.5 mg/kg/injection, schedule: Q01DX001 (ip), vehicle: saline with Tween-80
  T/C: 18 % of control

## CCOC(=O)Nc1cc2c(c(N)n1)N=C(c1ccccc1)CN2
endpoint: median tumor weight change, dose: 6.25 mg/kg/injection, schedule: Q01DX001 (ip), vehicle: saline with Tween-80
  T/C: 86 % of control
endpoint: median tumor weight change, dose: 12.5 mg/kg/injection, schedule: Q01DX001 (ip), vehicle: saline with Tween-80
  T/C: 35 % of control

## CC(=O)Nc1ccc(O)c(O)c1
endpoint: median tumor weight (est.), dose: 25.0 mg/kg/injection, schedule: Q07DX005 (ip), vehicle: saline with Tween-80
  T/C: 107 % of control
endpoint: median tumor weight (est.), dose: 50.0 mg/kg/injection, schedule: Q07DX005 (ip), vehicle: saline with Tween-80
  T/C: 81 % of control
[1]
  T/C: 79 % of control
[2]
  T/C: 76 % of control
endpoint: median tumor weight (est.), dose: 400.0 mg/kg/injection, schedule: Q07DX005 (ip), vehicle: saline with Tween-80
  T/C: 114 % of control
endpoint: median tumor weight (est.), dose: 800.0 mg/kg/injection, schedule: Q07DX005 (ip), vehicle: saline with Tween-80
  T/C: 159 % of control

## C=CC(C)(C)n1cc(C2=C(O)C(=O)C(c3cn(C(C)(C)C=C)c4ccccc34)=C(O)C2=O)c2ccccc21
endpoint: median tumor weight (est.), dose: 2.5 mg/kg/injection, schedule: Q07DX005 (ip), vehicle: Klucel (hydroxypropylcellulose) (HPC)
  T/C: 122 % of control
endpoint: median tumor weight (est.), dose: 5.0 mg/kg/injection, schedule: Q07DX005 (ip), vehicle: Klucel (hydroxypropylcellulose) (HPC)
  T/C: 74 % of control
endpoint: median tumor weight (est.), dose: 10.0 mg/kg/injection, schedule: Q07DX005 (ip), vehicle: Klucel (hydroxypropylcellulose) (HPC)
  T/C: 91 % of control
endpoint: median tumor weight (est.), dose: 20.0 mg/kg/injection, schedule: Q07DX005 (ip), vehicle: Klucel (hydroxypropylcellulose) (HPC)
  T/C: 157 % of control
endpoint: median tumor weight (est.), dose: 40.0 mg/kg/injection, schedule: Q07DX005 (ip), vehicle: Klucel (hydroxypropylcellulose) (HPC)
  T/C: 168 % of control
endpoint: median tumor weight change, dose: 1.25 mg/kg/injection, schedule: Q01DX001 (ip), vehicle: DMSO
  T/C: 64 % of control
endpoint: median tumor weight change, dose: 2.5 mg/kg/injection, schedule: Q01DX001 (ip), vehicle: DMSO
  T/C: 77 % of control
endpoint: median tumor weight change, dose: 5.0 mg/kg/injection, schedule: Q01DX001 (ip), vehicle: DMSO
  T/C: 86 % of control
endpoint: median tumor weight change, dose: 10.0 mg/kg/injection, schedule: Q01DX001 (ip), vehicle: DMSO
  T/C: 110 % of control

## COc1cc(NCc2ccc3nc(N)nc(N)c3c2C)cc(OC)c1OC
endpoint: median tumor weight (est.), dose: 1.88 mg/kg/injection, schedule: Q07DX005 (ip), vehicle: sodium bicarbonate
  T/C: 82 % of control
endpoint: median tumor weight (est.), dose: 3.75 mg/kg/injection, schedule: Q07DX005 (ip), vehicle: sodium bicarbonate
  T/C: 63 % of control and 82 % of control
endpoint: median tumor weight (est.), dose: 7.5 mg/kg/injection, schedule: Q07DX005 (ip), vehicle: sodium bicarbonate
  T/C: 114 % of control
endpoint: median tumor weight (est.), dose: 35.0 mg/kg/injection, schedule: Q04DX007 (ip), vehicle: water
  T/C: 100 % of control
endpoint: median tumor weight (est.), dose: 35.0 mg/kg/injection, schedule: Q07DX005 (ip), vehicle: water
  T/C: 87 % of control
endpoint: median tumor weight (est.), dose: 41.5 mg/kg/injection, schedule: Q04DX007 (ip), vehicle: water
  T/C: 59 % of control
endpoint: median tumor weight (est.), dose: 44.0 mg/kg/injection, schedule: Q07DX005 (ip), vehicle: water
  T/C: 44 % of control
endpoint: median tumor weight (est.), dose: 46.0 mg/kg/injection, schedule: Q07DX005 (ip), vehicle: water
  T/C: 26 % of control
endpoint: median tumor weight (est.), dose: 47.4 mg/kg/injection, schedule: Q04DX007 (ip), vehicle: water
  T/C: 29 % of control
endpoint: median tumor weight (est.), dose: 53.0 mg/kg/injection, schedule: Q04DX007 (ip), vehicle: water
  T/C: 66 % of control
endpoint: median tumor weight (est.), dose: 53.0 mg/kg/injection, schedule: Q07DX005 (ip), vehicle: saline
  T/C: 5 % of control
endpoint: median tumor weight (est.), dose: 53.0 mg/kg/injection, schedule: Q07DX005 (ip), vehicle: suspension in saline
  T/C: 67 % of control
endpoint: median tumor weight (est.), dose: 62.2 mg/kg/injection, schedule: Q04DX007 (ip), vehicle: water
  T/C: 29 % of control
endpoint: median tumor weight (est.), dose: 66.0 mg/kg/injection, schedule: Q07DX005 (ip), vehicle: water
  T/C: 111 % of control
endpoint: median tumor weight (est.), dose: 70.0 mg/kg/injection, schedule: Q07DX005 (ip), vehicle: water
  T/C: 44 % of control
endpoint: median tumor weight (est.), dose: 71.1 mg/kg/injection, schedule: Q04DX007 (ip), vehicle: water
  T/C: 45 % of control
endpoint: median tumor weight (est.), dose: 80.0 mg/kg/injection, schedule: Q04DX007 (ip), vehicle: water
  T/C: 121 % of control
endpoint: median tumor weight (est.), dose: 80.0 mg/kg/injection, schedule: Q07DX005 (ip), vehicle: suspension in saline
  T/C: 23 % of control
endpoint: median tumor weight (est.), dose: 99.0 mg/kg/injection, schedule: Q07DX005 (ip), vehicle: water
  T/C: 24 % of control
endpoint: median tumor weight (est.), dose: 105.0 mg/kg/injection, schedule: Q07DX005 (ip), vehicle: water
  T/C: 41 % of control
endpoint: median tumor weight (est.), dose: 120.0 mg/kg/injection, schedule: Q04DX007 (ip), vehicle: water
  T/C: 8 % of control
endpoint: median tumor weight (est.), dose: 120.0 mg/kg/injection, schedule: Q07DX005 (ip), vehicle: sodium bicarbonate
  T/C: 37 % of control

## Cc1c2oc3c(C)ccc(C(=O)N[C@@H]4C(=O)N[C@H](C(C)C)C(=O)N5CCC[C@H]5C(=O)N(C)CC(=O)N(C)[C@@H](C(C)C)C(=O)O[C@H]4C)c3nc-2c(C(=O)N[C@@H]2C(=O)N[C@H](C(C)C)C(=O)N3CCC[C@H]3C(=O)N(C)CC(=O)N(C)[C@@H](C(C)C)C(=O)O[C@H]2C)c(N)c1=O (I: [aThr][dV]P[Sar][NMeV] / II: [aThr][dV]P[Sar][NMeV]; ester I:1-I:C, II:1-II:C; linker I:N-II:N via Actinocin(9to1))
endpoint: mean tumor weight, dose: 0.02 mg/kg/injection, schedule: Q01DX009 (ip), vehicle: saline
  T/C: 98 % of control
endpoint: mean tumor weight, dose: 0.03 mg/kg/injection, schedule: Q01DX009 (ip), vehicle: saline + alcohol
  T/C: 73 % of control
endpoint: mean tumor weight, dose: 0.04 mg/kg/injection, schedule: Q01DX009 (ip), vehicle: saline + alcohol
  T/C: 65 % of control
endpoint: mean tumor weight, dose: 0.04 mg/kg/injection, schedule: Q01DX009 (ip), vehicle: saline
  T/C: 28 % of control
endpoint: mean tumor weight, dose: 0.1 mg/kg/injection, schedule: Q07DX007 (ip), vehicle: saline
  T/C: 36 % of control
endpoint: mean tumor weight, dose: 0.2 mg/kg/injection, schedule: Q07DX007 (ip), vehicle: saline
  T/C: 5 % of control
endpoint: median tumor weight (est.), dose: 0.03 mg/kg/injection, schedule: Q07DX005 (ip), vehicle: saline
  T/C: 56 % of control
endpoint: median tumor weight (est.), dose: 0.15 mg/kg/injection, schedule: Q07DX005 (ip), vehicle: saline
  T/C: 34 % of control and 49 % of control
endpoint: median tumor weight (est.), dose: 0.3 mg/kg/injection, schedule: Q07DX005 (ip), vehicle: saline
  T/C: 24 % of control
endpoint: median tumor weight (est.), dose: 12.5 micrograms/kg/injection, schedule: Q07DX005 (ip), vehicle: saline
  T/C: 66 % of control
endpoint: median tumor weight (est.), dose: 25.0 micrograms/kg/injection, schedule: Q07DX005 (ip), vehicle: saline
  T/C: 60 % of control
endpoint: median tumor weight (est.), dose: 50.0 micrograms/kg/injection, schedule: Q07DX005 (ip), vehicle: saline
  T/C: 70 % of control
endpoint: median tumor weight (est.), dose: 100.0 micrograms/kg/injection, schedule: Q07DX005 (ip), vehicle: saline
  T/C: 38 % of control
endpoint: median tumor weight (est.), dose: 200.0 micrograms/kg/injection, schedule: Q07DX005 (ip), vehicle: saline
  T/C: 9 % of control
endpoint: median tumor weight change, dose: 0.12 mg/kg/injection, schedule: Q01DX001 (ip), vehicle: saline
  T/C: 55 % of control
endpoint: median tumor weight change, dose: 0.25 mg/kg/injection, schedule: Q01DX001 (ip), vehicle: saline
  T/C: 30 % of control and 39 % of control
endpoint: median tumor weight change, dose: 0.5 mg/kg/injection, schedule: Q01DX001 (ip), vehicle: saline
  T/C: 7 % of control and 27 % of control
